Where “and” joins values, the source holds several entries; their conditions need not be identical. Equal values may be shown once. Read-outs that look alike come from different tables or passages of the source.
Assays:
L1 wild-type C. elegans = details: for Relative Motility: relative to DMSO controls, single biological replicate
[1] = molecular target: B. taurus (heart) complex I (Bos taurus, UniProt P03887+P17694+P42026); experiment: biochemical; format: biochemical; details: heart mitochondria; read-out: B. taurus Complex I IC50
Protocol: Six 8–10-week-old C57Bl/6 female mice (Charles River) were freshly dissected, and their livers and hearts collected into separate 1.5 mL microcentrifuge tubes. Organs were flash-frozen in liquid nitrogen and stored at −80 °C prior to use. The heart of a freshly slaughtered adult cow was obtained from a local abattoir (Peel Sausage Inc.), chopped into ~1-inch cubes and collected into 50 mL falcon tubes. Falcon tubes were flash-frozen in a container of dry ice and stored at −80 °C prior to use. Isolation of mitochondria from all mammalian tissue was carried out following the protocol described above. However, due to size, the initial homogenization of tissue was performed by 15 strokes in a dounce homogenizer (mouse heart) or with several 5 s pulses in small Nutribullet blender (cow heart). All mouse protocols for mouse care and dissection were reviewed and approved by the University of Toronto Animal Care Committee, in accordance with the Canadian Council on Animal Care.
(§1) The enzymatic activities of individual ETC complexes (I-IV) were assessed spectrophotometrically in isolated mitochondria using a Varioskan LUX Multimode plate reader (ThermoFisher Scientific). Mitochondrial pellets previously isolated were thawed on ice and resuspended in ice-cold isolation buffer (250 mM sucrose, 10 mM Tris (pH 7.5), 1 mM EDTA). The BCA assay (Walker, 1994) was used to quantify the protein concentration of mitochondria suspensions; solutions were diluted to a concentration of 0.2 mg/mL for use in all assays. For the complex I assay, mitochondria pellets were freeze-thawed on ice three times to increase enzyme accessibility. […] 20 μL mitochondria suspension was then added/mixed with a pipette to initiate the reaction. Immediately following the addition of mitochondria, absorbance was measured (complex I and II: 600 nm; complex III and IV: 550 nm) in 30 s intervals over 15 min. Enzymatic activity was determined in each reaction by plotting absorbance versus time and calculating the slope of the curve during the initial linear phase of the reaction. […] Percent activity of each complex was calculated by dividing the enzyme-specific activity of each well by the enzyme-specific activity of the corresponding solvent controls.
(§2) Chemical solutions were prepared in complex I assay buffer composed of 25 mM KPi buffer (pH 7.5), 3 mg/mL bovine serum albumin (BSA), 80 μM NADH, 60 μM decylubiquinone, 160 μM DCIP, 2 μM antimycin A and 2 mM KCN.
For preliminary screens of hit compounds, compounds were screened at 100 μM; data are the average of at least three biological replicates. The complex I and II activity assays were used for additional dose-response experiments. […] For dose responses of benzimidazole analogs, data represent the average of two biological replicates. For all other dose-responses, data represent the average of at least three biological replicates.

[2] = molecular target: C. elegans (N2) complex I (NADH:ubiquinone oxidoreductase) (Caenorhabditis elegans, UniProt P24887+Q93873+Q94360); experiment: biochemical; format: biochemical; details: for percent (%) in vitro complex I activity relative to solvent control: mitochondria
Protocol: Mitochondria were isolated from the following free-living nematode strains: C. elegans—N2, CB3474, ECA882, ECA917, ECA1075, ECA1080; C. briggsae—AF16; P. pacificus—PS312; and P. hermaphrodita—B178. With the exception of the P. hermaphrodita strain B178, adult worms of each strain were grown in bulk through liquid culture to obtain mitochondria in sufficient quantities. Due to poor growth in liquid media, mixed stage populations of P. hermaphrodita were washed off and collected from NGM plates seeded with OP50. The isolation of mitochondria from all free-living nematode strains followed the protocol previously outlined in Burns et al.[24]. In brief, a 1 L saturated culture of E. coli HB101 was concentrated 20-fold in 50 mL complete S-medium. ~500,000 L1 worms synchronized from an embryo preparation performed the day prior were added to the S-media/HB101 suspension and grown to adulthood over the course of 3.5 days at 20 °C with shaking at 165 rpm. Following growth, worms were collected in 10 ×15 mL conical tubes and washed 7 times in M9 buffer. Worm suspensions were then combined into a single 15 mL conical tube and diluted to a final volume of 15 mL with M9 buffer. 1 mL aliquots of worm suspension were then distributed to 15 × 1.5 mL screw-cap microcentrifuge tubes and were pelleted at 500 g for 1 min. Excess M9 was aspirated without disturbing the worm pellet. 600 μL ice-cold isolate buffer A (250 mM sucrose, 10 mM Tris (pH 7.5), 1 mM EDTA, 1 mM PMSF (freshly prepared)) and 300 μL cold glass beads were then added to each tube. Tubes were incubated on ice for 10 min, and the worms were then lysed by bead beating (6 x 30 s, with 1 min cooling intervals). Tubes containing worm lysate were centrifuged at 1,000 g for 10 min at 4 °C and the supernatant was transferred to 15 new microcentrifuge tubes on ice. The tubes were centrifuged a second time at 1,000 g for 10 min at 4 °C and the supernatant was once again transferred to 15 new microcentrifuge tubes on ice. These tubes were then centrifuged at 16,000 g for 10 min at 4 °C. The resulting mitochondrial pellet was washed twice by re-suspension in 300 μL of ice-cold isolate buffer B (250 mM sucrose, 10 mM Tris (pH 7.5), 1 mM EDTA). Following the final wash, isolation buffer was aspirated from each tube and the pellets were flash-frozen in ethanol/dry ice and stored at −80 °C until needed.
as §1, §2
For preliminary screens of hit compounds, compounds were screened at 100 μM; data are the average of at least three biological replicates.

[3] = 50 μM, hit = relative motility below 0.25 3 hours after removal of KCN
[4] = 50 μM, worm motility 3 hours after removal of KCN
[5] = 50 μM, hit = relative motility below 0.25 3 hours after the removal of KCN
[6] = 50 μM, worm motility 3 hours after the removal of KCN (endpoint)
[7] = active or inactive at 50 μM in C. elegans assay of RQ-dependent metabolism
[8] = 50 μM, KCN survival assay, hit = relative motility below 0.25
[9] = read-out: percent (%) in vitro complex I activity relative to solvent control

Chain of C. elegans (N2) complex I (NADH:ubiquinone oxidoreductase) (Q94360 17-199): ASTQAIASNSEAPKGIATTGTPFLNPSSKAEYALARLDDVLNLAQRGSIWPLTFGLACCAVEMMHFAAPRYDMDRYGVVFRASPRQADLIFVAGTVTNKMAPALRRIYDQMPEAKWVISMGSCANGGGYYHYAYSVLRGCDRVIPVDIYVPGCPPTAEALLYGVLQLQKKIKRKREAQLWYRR
Chain of C. elegans (N2) complex I (NADH:ubiquinone oxidoreductase) (P24887 whole entry): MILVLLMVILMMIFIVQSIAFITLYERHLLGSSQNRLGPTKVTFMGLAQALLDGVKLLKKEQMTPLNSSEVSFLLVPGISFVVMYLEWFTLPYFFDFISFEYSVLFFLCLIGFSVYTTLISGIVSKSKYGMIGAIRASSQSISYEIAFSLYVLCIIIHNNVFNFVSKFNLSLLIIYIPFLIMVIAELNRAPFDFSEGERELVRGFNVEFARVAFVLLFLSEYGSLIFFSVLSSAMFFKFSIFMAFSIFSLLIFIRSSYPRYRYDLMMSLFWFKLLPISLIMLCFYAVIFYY
Chain of C. elegans (N2) complex I (NADH:ubiquinone oxidoreductase) (Q93873 31-482): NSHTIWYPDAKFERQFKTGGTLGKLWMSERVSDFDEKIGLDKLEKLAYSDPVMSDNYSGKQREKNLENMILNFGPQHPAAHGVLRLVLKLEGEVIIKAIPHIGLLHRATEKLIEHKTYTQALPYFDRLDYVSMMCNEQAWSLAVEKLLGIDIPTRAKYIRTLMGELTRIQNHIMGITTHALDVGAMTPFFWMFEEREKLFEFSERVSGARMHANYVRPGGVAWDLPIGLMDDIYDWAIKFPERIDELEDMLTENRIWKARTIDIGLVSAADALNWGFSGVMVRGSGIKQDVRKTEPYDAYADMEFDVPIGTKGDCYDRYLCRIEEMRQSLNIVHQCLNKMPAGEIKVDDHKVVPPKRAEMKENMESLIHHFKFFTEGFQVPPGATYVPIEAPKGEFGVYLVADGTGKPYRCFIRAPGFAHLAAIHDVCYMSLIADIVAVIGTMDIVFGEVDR
Chain of B. taurus (heart) complex I (P03887 whole entry): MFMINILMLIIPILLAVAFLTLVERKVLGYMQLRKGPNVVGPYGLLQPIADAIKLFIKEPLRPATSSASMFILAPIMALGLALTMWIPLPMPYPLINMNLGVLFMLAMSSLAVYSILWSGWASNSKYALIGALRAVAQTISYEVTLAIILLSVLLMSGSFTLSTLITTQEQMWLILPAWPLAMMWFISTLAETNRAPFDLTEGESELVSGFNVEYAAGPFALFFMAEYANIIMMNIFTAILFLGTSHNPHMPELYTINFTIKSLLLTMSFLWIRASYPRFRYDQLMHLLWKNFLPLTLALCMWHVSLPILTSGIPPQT
Chain of B. taurus (heart) complex I (P17694 34-463): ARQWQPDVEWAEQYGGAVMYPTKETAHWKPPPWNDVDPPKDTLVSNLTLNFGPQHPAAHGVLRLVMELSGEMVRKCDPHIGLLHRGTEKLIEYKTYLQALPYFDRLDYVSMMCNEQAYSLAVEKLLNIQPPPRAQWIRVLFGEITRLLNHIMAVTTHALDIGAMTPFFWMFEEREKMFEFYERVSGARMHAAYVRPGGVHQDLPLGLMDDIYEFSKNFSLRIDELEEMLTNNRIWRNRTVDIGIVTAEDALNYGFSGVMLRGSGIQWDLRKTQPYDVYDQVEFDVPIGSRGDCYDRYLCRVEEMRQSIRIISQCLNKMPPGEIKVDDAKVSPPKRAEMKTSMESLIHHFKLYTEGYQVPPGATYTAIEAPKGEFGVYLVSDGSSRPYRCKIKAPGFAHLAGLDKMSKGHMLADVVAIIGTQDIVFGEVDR
Chain of B. taurus (heart) complex I (P42026 38-216): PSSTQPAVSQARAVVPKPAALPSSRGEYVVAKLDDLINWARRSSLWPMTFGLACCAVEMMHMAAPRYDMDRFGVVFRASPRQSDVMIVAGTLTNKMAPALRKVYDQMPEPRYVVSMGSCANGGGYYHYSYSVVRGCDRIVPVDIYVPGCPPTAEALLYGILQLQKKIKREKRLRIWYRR

## CCOc1ccc(CNc2nc3ccccc3n2CCN(CC)CC)cc1 [Compound 7768813]
L1 wild-type C. elegans; [3]
  Screen "Hit": Y (hits were identified as compounds that reduced relative motility below 0.25 (75% reduction))
L1 wild-type C. elegans; [4]
  Relative Motility: 0.210

## FC(OC(F)(F)F)c1nc2ccc(Cl)cc2[nH]1 (stereo not drawn) [Compound 5119407]
L1 wild-type C. elegans; active (hit) or inactive (non) at 50 μM in C. elegans assay of RQ-dependent metabolism
  Hit: non

## CCn1c(C)nc2cc(-c3ccccc3)ccc21 [Compound 5160815]
L1 wild-type C. elegans; [5]
  Screen "Hit": Y (hits were identified as compounds that reduced relative motility below 0.25 (75% reduction))
L1 wild-type C. elegans; [6]
  Relative Motility: 0.085

## N#Cc1ccc(CSc2nc3ccc(Br)cc3[nH]2)cc1 [Compound 6726033]
L1 wild-type C. elegans; [3]
  Screen "Hit": Y (hits were identified as compounds that reduced relative motility below 0.25 (75% reduction))
L1 wild-type C. elegans; [4]
  Relative Motility: 0.140

## COC(=O)c1ccc(OCC(O)Cn2c(C)nc3ccccc32)cc1 (stereo not drawn) [Compound 5929389]
L1 wild-type C. elegans; [7]
  Hit: non

## Cn1c(/C=C/c2ccc(Cl)cc2)nc2ccccc21 [Compound 5663561]
L1 wild-type C. elegans; [8]
  Screen "Hit": Y (hits were identified as compounds that reduced relative motility below 0.25 (75% reduction))
L1 wild-type C. elegans; [6]
  Relative Motility: 0.220

## COc1ccc(CSc2nc3ccccc3[nH]2)cc1 [Compound 5568705]
L1 wild-type C. elegans; [3]
  Screen "Hit": Y (hits were identified as compounds that reduced relative motility below 0.25 (75% reduction))
L1 wild-type C. elegans; [4]
  Relative Motility: 0.100

## CCn1c(NCc2cccc(Br)c2)nc2ccccc21 [Compound 7746308]
L1 wild-type C. elegans; [3]
  Screen "Hit": Y (hits were identified as compounds that reduced relative motility below 0.25 (75% reduction))
L1 wild-type C. elegans; [4]
  Relative Motility: 0.200

## Cc1nn(C)c(Oc2ccccc2)c1C=NOCc1ccc(C(=O)OC(C)(C)C)cc1 [Fenpyroximate, reference compound]
[1]
  IC50: 48 nM
[2]; wild-type (N2) mitochondria, read-out: C. elegans Complex I IC50
  IC50: 21 nM

## Cc1nc2cc(Cl)ccc2n1-c1ccccc1 [Compound 5119819]
L1 wild-type C. elegans; [8]
  Screen "Hit": Y (hits were identified as compounds that reduced relative motility below 0.25 (75% reduction))
L1 wild-type C. elegans; [6]
  Relative Motility: 0.230

## CCn1c(/C=C/c2ccccc2)nc2ccccc21 [Compound 5958035]
L1 wild-type C. elegans; [8]
  Screen "Hit": Y (hits were identified as compounds that reduced relative motility below 0.25 (75% reduction))
L1 wild-type C. elegans; [6]
  Relative Motility: 0.160

## Cn1c(NCc2cccc(Br)c2)nc2ccccc21 [Compound 7766492]
L1 wild-type C. elegans; [3]
  Screen "Hit": Y (hits were identified as compounds that reduced relative motility below 0.25 (75% reduction))
L1 wild-type C. elegans; [4]
  Relative Motility: 0.130

## c1ccc2c(c1)ncn2CCOc1ccc2c(c1)CCC2 [Compound 7925762]
L1 wild-type C. elegans; 50 μM compound, hit = relative motility below 0.25 3 hours after removal of KCN
  Screen "Hit": Y (hits were identified as compounds that reduced relative motility below 0.25 (75% reduction))
L1 wild-type C. elegans; 50 μM compound, worm motility 3 hours after removal of KCN
  Relative Motility: 0.250

## CCN(CC)CCSc1nc2ccccc2n1Cc1ccccc1 [Compound 5685018]
L1 wild-type C. elegans; [8]
  Screen "Hit": Y (hits were identified as compounds that reduced relative motility below 0.25 (75% reduction))
L1 wild-type C. elegans; [6]
  Relative Motility: 0.220

## CC(C)CCSc1nc2ccccc2[nH]1 [Compound 5867913]
L1 wild-type C. elegans; [5]
  Screen "Hit": Y (hits were identified as compounds that reduced relative motility below 0.25 (75% reduction))
L1 wild-type C. elegans; [6]
  Relative Motility: 0.150

## Nc1ccc(Oc2ccc(-c3nc4ccccc4[nH]3)cc2)cc1 [Compound 5747231]
L1 wild-type C. elegans; [3]
  Screen "Hit": Y (hits were identified as compounds that reduced relative motility below 0.25 (75% reduction))
L1 wild-type C. elegans; [4]
  Relative Motility: 0.130

## Cc1ccc(C(C)C)cc1OCC(O)Cn1c(C)nc2ccccc21 (stereo not drawn) [Compound 7748492]
L1 wild-type C. elegans; [3]
  Screen "Hit": Y (hits were identified as compounds that reduced relative motility below 0.25 (75% reduction))
L1 wild-type C. elegans; [4]
  Relative Motility: 0.220

## CCCSc1ccc2nc(NC(=O)OC)[nH]c2c1 [Albendazole]
[2]; 0.125 µM
  percent (%) in vitro complex I activity relative to solvent control: 118.853% and 109.086% and 106.962%
[2]; 0.313 µM
  percent (%) in vitro complex I activity relative to solvent control: 114.037% and 108.086% and 98.922%
[2]; 0.625 µM
  percent (%) in vitro complex I activity relative to solvent control: 95.184% and 91.388% and 110.521%
[2]; 1.5 µM
  percent (%) in vitro complex I activity relative to solvent control: 96.241% and 104.509% and 111.883%
[2]; 3 µM
  percent (%) in vitro complex I activity relative to solvent control: 99.535% and 109.848% and 112.347%
[2]; 15 µM
  percent (%) in vitro complex I activity relative to solvent control: 97.910% and 114.555% and 112.953%
[2]; 37.5 µM
  percent (%) in vitro complex I activity relative to solvent control: 89.237% and 107.533% and 106.445%
[2]; 75 µM
  percent (%) in vitro complex I activity relative to solvent control: 100.906% and 79.462% and 105.930% and 106.268%
[2]; [9]
  remaining activity at 0.125 µM: 103%
  remaining activity at 0.313 µM: 104%
  remaining activity at 0.625 µM: 102%
  remaining activity at 1.5 µM: 109%
  remaining activity at 3 µM: 106%
  remaining activity at 15 µM: 106%
  remaining activity at 37.5 µM: 105%
  remaining activity at […]: 108%

## C=CCn1c(/C=C/c2ccccc2OC)nc2ccccc21 [Compound 7121977]
L1 wild-type C. elegans; [8]
  Screen "Hit": Y (hits were identified as compounds that reduced relative motility below 0.25 (75% reduction))
L1 wild-type C. elegans; [6]
  Relative Motility: 0.140

## Fc1cccc(F)c1CSc1nc2ccccc2[nH]1 [Compound 5616951]
L1 wild-type C. elegans; [3]
  Screen "Hit": Y (hits were identified as compounds that reduced relative motility below 0.25 (75% reduction))
L1 wild-type C. elegans; [4]
  Relative Motility: 0.130

## CCCc1nc2ccccc2n1Cc1ccc(C)cc1 [Compound 6607958]
L1 wild-type C. elegans; [8]
  Screen "Hit": Y (hits were identified as compounds that reduced relative motility below 0.25 (75% reduction))
L1 wild-type C. elegans; [6]
  Relative Motility: 0.120

## C=CCn1c(NCc2ccccc2OC)nc2ccccc21 [Compound 7419109]
L1 wild-type C. elegans; [3]
  Screen "Hit": Y (hits were identified as compounds that reduced relative motility below 0.25 (75% reduction))
L1 wild-type C. elegans; [4]
  Relative Motility: 0.078

## CCCOc1ccc(Cn2c(CO)nc3ccccc32)cc1 [Compound 7356999]
L1 wild-type C. elegans; [7]
  Hit: non

## CC(C)(C)c1ccc(Cn2c(N)nc3ccccc32)cc1 [Compound 5564334]
L1 wild-type C. elegans; [8]
  Screen "Hit": Y (hits were identified as compounds that reduced relative motility below 0.25 (75% reduction))
L1 wild-type C. elegans; [6]
  Relative Motility: 0.130

## Cc1ccccc1Cn1cnc2ccccc21 [Compound 5656207]
L1 wild-type C. elegans; [7]
  Hit: non

Reference: publication PMC11079024, “Identification of a family of species-selective complex I inhibitors as potential anthelmintics” (Nature Communications, 2024)
